# Reference: patent publication US20230131966A1, “FUNGICIDAL AMIDES” (FMC Corporation, priority 2020, published 2023)
# Assays:
# Format in all cases: in vivo
# [1] = system: Phakopsora pachyrhizi; assay: Test A: Asian soybean rust control on soybean seedlings; conditions: soybean seedlings, 100 = 100% disease control, 0 = no control
# [2] = system: Puccinia recondita f. sp. tritici; assay: Test B: wheat leaf rust control on wheat seedlings; conditions: wheat seedlings, 100 = 100% disease control, 0 = no control
# [3] = system: Zymoseptoria tritici; assay: Test C: wheat leaf blotch control on wheat seedlings; conditions: wheat seedlings, 100 = 100% disease control, 0 = no control
# [4] = system: Plasmopara viticola; assay: Test D: grape downy mildew control on grape seedlings; conditions: 100 = 100% disease control, 0 = no control
# [5] = system: Botrytis cinerea; assay: Test E: tomato Botrytis control on tomato seedlings; conditions: 100 = 100% disease control, 0 = no control
# [6] = system: Phytophthora infestans; assay: whole plant or invertebrate; conditions: tomato seedlings, 100 = 100% disease control, 0 = no control
# [7] = system: Erysiphe graminis f. sp. tritici; assay: Test G: wheat powdery mildew control on wheat seedlings; conditions: 100 = 100% disease control, 0 = no control
Structure (SMILES),Test A disease control rating ([1]; 250 ppm) [%],Test B disease control rating ([2]; 250 ppm) [%],Test C disease control rating ([3]; 250 ppm) [%],Test D disease control rating ([4]; 250 ppm) [%],Test E disease control rating ([5]; 250 ppm) [%],Test F disease control rating ([6]; 250 ppm) [%],Test G disease control rating ([7]; 250 ppm) [%],Test A disease control rating ([1]; 50 ppm) [%],Test B disease control rating ([2]; 50 ppm) [%],Test C disease control rating ([3]; 50 ppm) [%],Test D disease control rating ([4]; 50 ppm) [%],Test E disease control rating ([5]; 50 ppm) [%],Test F disease control rating ([6]; 50 ppm) [%],Test G disease control rating ([7]; 50 ppm) [%]
C#Cc1ccc(C(C)OC(=O)C(C)NC(=O)c2nccc(OC)c2O)cc1 (mixture of isomers) [Compound 78],100,100,82,85,0,0,0,–,–,–,–,–,–,–
COc1ccnc(C(=O)NC(C)C(=O)OC(C)c2ccc(C#C[Si](C)(C)C)cc2)c1OC(C)=O (mixture of isomers) [Compound 80],100,100,98,28,0,0,0,–,–,–,–,–,–,–
COc1ccnc(C(=O)NC(C)C(=O)OC(C)c2ccc(F)cc2Oc2ccccc2)c1O (mixture of isomers) [Compound 81],93,68,78,53,0,0,0,–,–,–,–,–,–,–
COc1ccnc(C(=O)NC(C)C(=O)OC(C)c2ccc(F)cc2Oc2ccc(F)cc2)c1O (mixture of isomers) [Compound 82],95,55,79,82,0,0,0,–,–,–,–,–,–,–
COc1ccnc(C(=O)NC(C)C(=O)OC(C)c2ccc(F)cc2Oc2ccccc2)c1OC(C)=O (mixture of isomers) [Compound 85],63,79,67,62,0,0,0,–,–,–,–,–,–,–
COc1ccnc(C(=O)NC(C)C(=O)OC(C)c2ccc(-n3ccc(C(F)(F)F)n3)cc2-n2ccc(C(F)(F)F)n2)c1O (mixture of isomers) [Compound 89],0,0,0,16,0,0,0,–,–,–,–,–,–,–
COc1ccnc(C(=O)NC(C)C(=O)OC(C)c2ccc(-n3ccc(C(F)(F)F)n3)cc2-n2ccc(C(F)(F)F)n2)c1OC(C)=O (mixture of isomers) [Compound 90],0,55,0,17,0,0,0,–,–,–,–,–,–,–
COc1cccc(C(=O)NC(C)C(=O)OC(C)C2CCCCC2)c1O (mixture of isomers) [Compound 91],0,0,2,96,0,0,0,–,–,–,–,–,–,–
COc1cccc(C(=O)NC(C)C(=O)OC(C)C2CCCCC2)c1OC(C)=O (mixture of isomers) [Compound 92],0,0,0,60,0,0,0,–,–,–,–,–,–,–
CC(NC(=O)c1cccc(NC=O)c1O)C(=O)OC(C)c1ccc(C2CCCCC2)cc1 (mixture of isomers) [Compound 97],98,92,99,100,0,99,0,–,–,–,–,–,–,–
COc1ccnc(C(=O)NC(C)C(=O)N(C)C(C)c2ccc(C3CCCCC3)cc2)c1O (mixture of isomers) [Compound 98],89,0,59,71,0,0,0,–,–,–,–,–,–,–
COc1ccnc(C(=O)NC(C)C(=O)N(C)C(C)c2ccc(C3CCCCC3)cc2)c1OC(C)=O (mixture of isomers) [Compound 99],98,68,88,39,0,0,0,–,–,–,–,–,–,–
COc1ccnc(C(=O)NC(C)C(=O)OC(C)C2CCCCCC2)c1OC(C)=O (mixture of isomers) [Compound 101],–,–,–,–,–,–,–,100,68,66,86,0,0,0
COc1ccnc(C(=O)NC(C)C(=O)OC(C)C2CCCCCC2)c1O (mixture of isomers) [Compound 102],–,–,–,–,–,–,–,100,55,0,72,0,0,0
COc1ccnc(C(=O)NC(C)C(=O)OC(C)C2CCC(c3ccccc3)CC2)c1O (mixture of isomers) [Compound 103],100,100,99,74,0,0,0,–,–,–,–,–,–,–
COc1ccnc(C(=O)NC(C)C(=O)OC(C)c2cc3ccccc3o2)c1O (mixture of isomers) [Compound 125],99,90,90,67,0,0,0,–,–,–,–,–,–,–
COc1ccnc(C(=O)NC(C)C(=O)OC(C)C2CCCCC2)c1O (mixture of isomers) [Compound 126],0,0,10,3,0,0,0,–,–,–,–,–,–,–
C=CCOc1c(OC)ccnc1C(=O)NC(C)C(=O)OC(C)c1ccc(C2CCCCC2)cc1 (mixture of isomers) [Compound 153],100,95,24,70,0,26,0,–,–,–,–,–,–,–
